The text below walks through data of patent US7449476B2, “Tetrahydrocarboline antiviral agents” (priority 2004, dated 2008).

SMILES strings stand for the structures.

For the assay, the system named is HIV-1. Put plainly: Single-round infectious HIV-1 luciferase reporter virus infection of HeLa CD4 cells. Type of assay: cell-based. The note with it: Human immunodeficiency virus 1, HeLa, 72 h. The procedure: Cells: (virus production) human embryonic kidney cell line, 293, was propagated in Dulbecco's Modified Eagle Medium (Invitrogen, Carlsbad, Calif.) containing 10% fetal Bovine serum (FBS, Sigma, St. Louis, Mo.); (virus infection) human epithelial cell line, HeLa, expressing the HIV-1 receptor CD4 was propagated in Dulbecco's Modified Eagle Medium (Invitrogen, Carlsbad, Calif.) containing 10% fetal Bovine serum (FBS, Sigma, St. Louis, Mo.) and supplemented with 0.2 mg/mL Geneticin (Invitrogen, Carlsbad, Calif.).
Virus: single-round infectious reporter virus was produced by co-transfecting human embryonic kidney 293 cells with an HIV-1 envelope DNA expression vector and a proviral cDNA containing an envelope deletion mutation and the luciferase reporter gene inserted in place of HIV-1 nef sequences. Transfections were performed using lipofectAMINE PLUS reagent as described by the manufacturer (Invitrogen, Carlsbad, Calif.).
Experiment: HeLa CD4 cells were plated in 96 well plates at a cell density of 1×10^4 cells per well in 100 μl Dulbecco's Modified Eagle Medium containing 10% fetal Bovine serum and incubated overnight. Compound was added in a 2 μl dimethylsulfoxide solution, so that the final assay concentration would be ≦10 μM. Single-round infectious reporter virus (100 μL) in Dulbecco's Modified Eagle Medium was then added to the plated cells and compound at an approximate multiplicity of infection (MOI) of 0.01, resulting in a final volume of 200 μl per well. Virally-infected cells were incubated at 37 degrees Celsius, in a CO2 incubator, and harvested 72 h after infection. Viral infection was monitored by measuring luciferase expression from viral DNA in the infected cells using a luciferase reporter gene assay kit, as described by the manufacturer (Roche Molecular Biochemicals, Indianapolis, Ind.). Infected cell supernatants were removed and 50 μl of lysis buffer was added per well. After 15 minutes, 50 μl of freshly-reconstituted luciferase assay reagent was added per well. Luciferase activity was then quantified by measuring luminescence using a Wallac microbeta luminescence reader.
The percent inhibition for each compound was calculated by quantifying the level of luciferase expression in cells infected in the presence of each compound as a percentage of that observed for cells infected in the absence of compound and subtracting such a determined value from 100. The effective concentration for fifty percent inhibition (EC50) was calculated with Microsoft Excel Xlfit curve fitting software. For each compound, curves were generated from percent inhibition calculated at 10 different concentrations by using a four paramenter logistic model (model 205).
In general terms: In a reporter assay the amount or activity of a reporter protein is the signal.
What is called EC50 is the concentration at which the effect is half-maximal. In turn, `COc1ncc(OC)c2c(C(=O)C(=O)N3CCc4c(c5ccccc5n4-c4ccccc4)C3)c[nH]c12` [Example 1, 1-(5-Phenyl-1,3,4,5-tetrahydro-pyrido[4,3-b]indol-2-yl)-2-(4,7-dimethoxy-6-azaindol-3-yl)-ethane-1,2-dione] had an EC50 of less than 1000 nM. Consider `COc1ncc(OC)c2c(C(=O)C(=O)N3CCc4[nH]c5ccccc5c4C3)c[nH]c12` [Example 2, 1-(1,3,4,5-Tetrahydro-pyrido[4,3-b]indol-2-yl)-2-(4,7-dimethoxy-6-azaindol-3-yl)-ethane-1,2-dione], for which the EC50 is greater than 5000 nM. The value for `COc1ncc(OC)c2c(C(=O)C(=O)N3CCc4[nH]c5ccc(F)cc5c4C3)c[nH]c12` [Example 3, 1-(8-Fluoro-1,3,4,5-tetrahydro-pyrido[4,3-b]indol-2-yl)-2-(4,7-dimethoxy-6-azaindol-3-yl)-ethane-1,2-dione] was greater than 5000 nM; that for `COc1ncc(OC)c2c(C(=O)C(=O)N3CCc4c(c5cc(F)ccc5n4C)C3)c[nH]c12` [Example 4, 1-(8-Fluoro-5-methyl-1,3,4,5-tetrahydro-pyrido[4,3-b]indol-2-yl)-2-(4,7-dimethoxy-6-azaindol-3-yl)-ethane-1,2-dione] was less than 1000 nM; that for `COc1ncc(OC)c2c(C(=O)C(=O)N3CCc4[nH]c5ccc(C(F)(F)F)cc5c4C3)c[nH]c12` [Example 5, 1-(8-Trifluoromethyl-1,3,4,5-tetrahydro-pyrido[4,3-b]indol-2-yl)-2-(4,7-dimethoxy-6-azaindol-3-yl)-ethane-1,2-dione] was 1000 to 5000 nM. In the case of `COc1cnc(-n2cnc(C)n2)c2[nH]cc(C(=O)C(=O)N3CCc4c(c5ccccc5n4-c4ccccc4)C3)c12` [Example 6, 1-(5-Phenyl-1,3,4,5-tetrahydro-pyrido[4,3-b]indol-2-yl)-2-[4-methoxy-7-(3-methyl-1,2,4-triazol-1-yl)-6-azaindol-3-yl]-ethane-1,2-dione], the EC50 was less than 1000 nM.

`COc1cnc(-n2ncnc2C)c2[nH]cc(C(=O)C(=O)N3CCc4c(c5ccccc5n4-c4ccccc4)C3)c12` [Example 7, 1-(5-Phenyl-1,3,4,5-tetrahydro-pyrido[4,3-b]indol-2-yl)-2-[4-methoxy-7-(5-methyl-1,2,4-triazol-1-yl)-6-azaindol-3-yl]-ethane-1,2-dione] displayed an EC50 of less than 1000 nM.

Turning to `COc1cnc(-n2cnc(C)n2)c2[nH]cc(C(=O)C(=O)N3CCc4c(c5cc(F)ccc5n4-c4ccccc4)C3)c12` [Example 8, 1-(8-Fluoro-5-phenyl-1,3,4,5-tetrahydro-pyrido[4,3-b]indol-2-yl)-2-[4-methoxy-7-(3-methyl-1,2,4-triazol-1-yl)-6-azaindol-3-yl]-ethane-1,2-dione], the EC50 is less than 1000 nM. `COc1cnc(-n2ccnn2)c2[nH]cc(C(=O)C(=O)N3CCc4c(c5cc(F)ccc5n4-c4ccccc4)C3)c12` [Example 9, 1-(8-Fluoro-5-phenyl-1,3,4,5-tetrahydro-pyrido[4,3-b]indol-2-yl)-2-[4-methoxy-7-(1,2,3-triazol-1-yl)-6-azaindol-3-yl]-ethane-1,2-dione] gave an EC50 of less than 1000 nM.
